Laboratory results published in patent US9284333B2, “Fused pyrroledicarboxamides and their use as pharmaceuticals” (SANOFI, priority 2012, dated 2016).

target: Human TASK-1 channels (Homo sapiens (Human), UniProt O14649); assay: Determination of the activity on the TASK-1 channel in Xenopus oocytes (two-microelectrode voltage clamp); format: cell-based; conditions: compound concentration 5 μM
How it was run: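 Current during 500 ms pulses to 40 mV from a −90 mV hold was recorded in oocytes expressing human TASK-1 for two days after cRNA injection. Compounds were added cumulatively to the ND96 bath (pH 7.4, room temperature). IC50 came from dose-response fitting of inhibition relative to pre-compound current.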

Sequence of Human TASK-1 channels (O14649 whole entry): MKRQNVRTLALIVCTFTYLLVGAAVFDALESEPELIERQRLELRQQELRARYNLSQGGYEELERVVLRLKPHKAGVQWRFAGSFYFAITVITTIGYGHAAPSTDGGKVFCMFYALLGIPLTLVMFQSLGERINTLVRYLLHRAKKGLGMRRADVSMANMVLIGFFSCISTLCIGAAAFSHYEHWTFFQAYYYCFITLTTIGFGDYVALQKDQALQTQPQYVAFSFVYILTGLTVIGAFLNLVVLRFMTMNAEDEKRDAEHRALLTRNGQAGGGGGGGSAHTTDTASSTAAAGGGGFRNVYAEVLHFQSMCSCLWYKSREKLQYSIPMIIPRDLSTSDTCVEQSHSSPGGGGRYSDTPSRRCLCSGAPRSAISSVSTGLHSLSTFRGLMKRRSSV

Compound	inhibition at 5 µM [%]
CC[C@@H](NC(=O)c1cc(C(=O)NC(C)c2nnnn2CC)n2c1COCC2)c1ccccc1 (stereo partly drawn) [16rr, 3,4-Dihydro-1H-pyrrolo[2,1-c][1,4]oxazine-6,8-dicarboxylic acid 6-{[1-(1-ethyl-1H-tetrazol-5-yl)-ethyl]-amide} 8-[((R)-1-phenyl-propyl)-amide]]	71
CC[C@@H](NC(=O)c1cc(C(=O)N2CCC[C@@H]2C)n2c1COCC2)c1cnc(C(F)(F)F)nc1 [16bt, 6-((S)-2-Methyl-pyrrolidine-1-carbonyl)-3,4-dihydro-1H-pyrrolo[2,1-c][1,4]oxazine-8-carboxylic acid [(R)-1-(2-trifluoromethyl-pyrimidin-5-yl)-propyl]-amide]	47
CC[C@@H](NC(=O)c1cc(C(=O)N2CCC[C@@H]2c2ccc(C(F)(F)F)nc2)n2c1COCC2)c1ccccc1 [16ga, 6-[(R)-2-(6-Trifluoromethyl-pyridin-3-yl)-pyrrolidine-1-carbonyl]-3,4-dihydro-1H-pyrrolo[2,1-c][1,4]oxazine-8-carboxylic acid ((R)-1-phenyl-propyl)-amide]	67

same assay, conditions: human TASK-1 expressed in Xenopus oocytes, room temperature; read-out: IC50 value for TASK-1 inhibition

Compound	IC50 [nM]
CC[C@@H](NC(=O)c1cc(C(=O)N2CCC[C@@H]2C)n2c1COCC2)c1cnc(C(F)(F)F)cc1C(F)(F)F [16by, 6-((S)-2-Methyl-pyrrolidine-1-carbonyl)-3,4-dihydro-1H-pyrrolo[2,1-c][1,4]oxazine-8-carboxylic acid [(R)-1-(4,6-bis-trifluoromethyl-pyridin-3-yl)-propyl]-amide]	800
CC(C)[C@@H](NC(=O)c1cc(C(=O)N2CCC[C@@H]2C)c2n1CCOC2)c1ccc(F)cc1 [16lj, 8-((S)-2-Methyl-pyrrolidine-1-carbonyl)-3,4-dihydro-1H-pyrrolo[2,1-c][1,4]oxazine-6-carboxylic acid [(R)-1-(4-fluoro-phenyl)-2-methyl-propyl]-amide]	200
CC[C@@H](NC(=O)c1cc(C(=O)N2CCC[C@@H]2C)n2c1COCC2)c1cnc(OC)c(Cl)c1 [16b, 6-((S)-2-Methyl-pyrrolidine-1-carbonyl)-3,4-dihydro-1H-pyrrolo[2,1-c][1,4]oxazine-8-carboxylic acid [(R)-1-(5-chloro-6-methoxy-pyridin-3-yl)-propyl]-amide]	61
CC[C@@H](NC(=O)c1cc(C(=O)N2CCC[C@@H]2CC(=O)OC(C)C)n2c1COCC2)c1ccccc1 [16fo, {(R)-1-[8-((R)-1-Phenyl-propylcarbamoyl)-3,4-dihydro-1H-pyrrolo[2,1-c][1,4]oxazine-6-carbonyl]-pyrrolidin-2-yl}-acetic acid isopropyl ester]	230
O=C(N[C@@H](c1ccc(F)cc1)C1CC1)c1cc(C(=O)N2CCCC2)n2c1COCC2 [16dg, 6-(Pyrrolidine-1-carbonyl)-3,4-dihydro-1H-pyrrolo[2,1-c][1,4]oxazine-8-carboxylic acid [(R)-cyclopropyl-(4-fluoro-phenyl)-methyl]-amide]	300
CC[C@@H](NC(=O)c1cc(C(=O)N2CC[C@@H](OC)C2)n2c1CCCC2)c1ccccc1 [16mg, 3-((R)-3-Methoxy-pyrrolidine-1-carbonyl)-5,6,7,8-tetrahydro-indolizine-1-carboxylic acid ((R)-1-phenyl-propyl)-amide]	840
CC[C@@H](NC(=O)c1cc(C(=O)N2CCC[C@@H]2C)n2c1COCC2)c1cccc(C(F)(F)F)n1 [16ap]	76
CC[C@@H](NC(=O)c1cc(C(=O)N2CCC[C@@H]2C(=O)OC(C)C)n2c1COCC2)c1ccccc1 [16n]	140
CC[C@@H](NC(=O)c1cc(C(=O)NCc2cnccn2)n2c1COCC2)c1ccc(F)cc1Cl [16no, 3,4-Dihydro-1H-pyrrolo[2,1-c][1,4]oxazine-6,8-dicarboxylic acid 8-{[(R)-1-(2-chloro-4-fluoro-phenyl)-propyl]-amide} 6-[(pyrazin-2-ylmethyl)-amide]]	170
CC[C@@H](NC(=O)c1cc(C(=O)N2CCC[C@@H]2COC(C)=O)n2c1COCC2)c1ccccc1 [16rg, acetic acid (R)-1-[8-((R)-1-phenyl-propylcarbamoyl)-3,4-dihydro-1H-pyrrolo[2,1-c][1,4]oxazine-6-carbonyl]-pyrrolidin-2-ylmethyl ester]	110
CC[C@@H](NC(=O)c1cc(C(=O)N2CCCCC2)n2c1CCCC2)c1ccccc1 [16mi, 3-(Piperidine-1-carbonyl)-5,6,7,8-tetrahydro-indolizine-1-carboxylic acid ((R)-1-phenyl-propyl)-amide]	590
CC[C@@H](NC(=O)c1cc(C(=O)N2CCC[C@@H]2C)n2c1COCC2)c1ccc(Cl)c(C(F)(F)F)c1 [16cs, 6-((S)-Methyl-pyrrolidine-1-carbonyl)-3,4-dihydro-1H-pyrrolo[2,1-c][1,4]oxazine-8-carboxylic acid [(R)-1-(4-chloro-3-trifluoromethyl-phenyl)-propyl]-amide]	290
CC[C@@H](NC(=O)c1cc(C(=O)N2CCC[C@@H]2C)n2c1COCC2)c1ccc(C#N)nc1 [16aa, 6-((S)-2-Methyl-pyrrolidine-1-carbonyl)-3,4-dihydro-1H-pyrrolo[2,1-c][1,4]oxazine-8-carboxylic acid [(R)-1-(6-cyano-pyridin-3-yl)-propyl]-amide]	2400

Further lines, results first:

IC50 [nM]	Compound
380	CC[C@@H](NC(=O)c1cc(C(=O)N2CCC[C@@H]2COC)n2c1COCC2)c1ccccc1 [16eo, 6-((R)-2-Methoxymethyl-pyrrolidine-1-carbonyl)-3,4-dihydro-1H-pyrrolo[2,1-c][1,4]oxazine-8-carboxylic acid ((R)-1-phenyl-propyl)-amide]
3700	CC[C@@H](NC(=O)c1cc(C(=O)N2CCCC2C(C)(C)O)n2c1COCC2)c1ccccc1 (stereo partly drawn) [16ew, 6-[2-(1-Hydroxy-1-methyl-ethyl)-pyrrolidine-1-carbonyl]-3,4-dihydro-1H-pyrrolo[2,1-c][1,4]oxazine-8-carboxylic acid ((R)-1-phenyl-propyl)-amide]
310	CC[C@@H](NC(=O)c1cc(C(=O)N[C@H](CC)c2ccccn2)n2c1COCC2)c1ccccc1 [16gr, 3,4-Dihydro-1H-pyrrolo[2,1-c][1,4]oxazine-6,8-dicarboxylic acid 8-[((R)-1-phenyl-propyl)-amide] 6-[((R)-1-pyridin-2-yl-propyl)-amide]]
120	CC[C@@H](NC(=O)c1cc(C(=O)N(C)CC(=O)OC(C)C)n2c1COCC2)c1ccccc1 [16iu, {Methyl-[8-((R)-1-phenyl-propylcarbamoyl)-3,4-dihydro-1H-pyrrolo[2,1-c][1,4]oxazine-6-carbonyl]-amino}-acetic acid isopropyl ester]
1800	CC[C@@H](NC(=O)c1cc(C(=O)NC(C)c2cccc(S(N)(=O)=O)c2)n2c1COCC2)c1ccccc1 (stereo partly drawn) [16ip, 3,4-dihydro-1H-pyrrolo[2,1-c][1,4]oxazine-6,8-dicarboxylic acid 8-[((R)-1-phenyl-propyl)-amide] 6-{[1-(3-sulfamoyl-phenyl)ethyl]-amide}]
4500	CC[C@@H](NC(=O)c1cc(C(=O)N(C)[C@@H](C)C(=O)NC(C)C)n2c1COCC2)c1ccccc1 [16rl]
69	CC[C@@H](NC(=O)c1cc(C(=O)N2CCC[C@@H]2C)n2c1COCC2)c1ccccc1 [16a, 6-((S)-2-Methyl-pyrrolidine-1-carbonyl)-3,4-dihydro-1H-pyrrolo[2,1-c][1,4]oxazine-8-carboxylic acid ((R)-1-phenyl-propyl)-amide]
130	CC[C@H](NC(=O)c1cc(C(=O)N[C@H](CC)c2ccccc2)c2n1CCOC2)c1cnc(OC)cn1 [16hz, 3,4-Dihydro-1H-pyrrolo[2,1-c][1,4]oxazine-6,8-dicarboxylic acid 6-{[(S)-1-(5-methoxy-pyrazin-2-yl)-propyl]-amide} 8-[((R)-1-phenyl-propyl)-amide]]
490	CC[C@@H](NC(=O)c1cc(C(=O)N(C)CC2CC2)n2c1COCC2)c1ccccc1 [16he, 3,4-Dihydro-1H-pyrrolo[2,1-c][1,4]oxazine-6,8-dicarboxylic acid 6-(cyclopropylmethyl-methyl-amide) 8-[((R)-1-phenyl-propyl)-amide]]
4700	CC[C@@H](NC(=O)c1c(C)c(C(=O)N2CCC[C@@H]2C)n2c1COCC2)c1ccc(C(F)(F)F)nc1 [16rx, 7-Methyl-6-((S)-2-methyl-pyrrolidine-1-carbonyl)-3,4-dihydro-1H-pyrrolo[2,1-c][1,4]oxazine-8-carboxylic acid [(R)-1-(6-trifluoromethyl-pyridin-3-yl)-propyl]-amide]
210	CC[C@@H](NC(=O)c1cc(C(=O)N2CCC[C@@H]2C(C)C)c2n1CCOC2)c1ccccc1 [16kl, 8-((R)-2-Isopropyl-pyrrolidine-1-carbonyl)-3,4-dihydro-1H-pyrrolo[2,1-c][1,4]oxazine-6-carboxylic acid ((R)-1-phenyl-propyl)-amide]
310	CC[C@@H](NC(=O)c1cc(C(=O)NCc2cnccn2)n2c1COCC2)c1ccccc1 [16gt, 3,4-Dihydro-1H-pyrrolo[2,1-c][1,4]oxazine-6,8-dicarboxylic acid 8-[((R)-1-phenyl-propyl)-amide] 6-[(pyrazin-2-ylmethyl)-amide]]
5100	CC[C@@H](NC(=O)c1cc(C(=O)N2CCCC2c2ncccn2)n2c1COCC2)c1ccccc1 (stereo partly drawn) [16fz, 6-(2-Pyrimidin-2-yl-pyrrolidine-1-carbonyl)-3,4-dihydro-1H-pyrrolo[2,1-c][1,4]oxazine-8-carboxylic acid ((R)-1-phenyl-propyl)-amide]
530	CC[C@@H](NC(=O)c1cc(C(=O)N[C@H](CC)c2ccc(C(F)(F)F)nc2)n2c1COCC2)c1ccccc1 [16id, 3,4-Dihydro-1H-pyrrolo[2,1-c][1,4]oxazine-6,8-dicarboxylic acid 8-[((R)-1-phenyl-propyl)-amide] 6-{[(R)-1-(6-trifluoromethyl-pyridin-3-yl)-propyl]-amide}]
750	CC[C@@H](NC(=O)c1cc(C(=O)NC(C)c2nnn(CC)n2)n2c1COCC2)c1ccccc1 (stereo partly drawn) [16rq, 3,4-Dihydro-1H-pyrrolo[2,1-c][1,4]oxazine-6,8-dicarboxylic acid 6-{[1-(2-ethyl-2H-tetrazol-5-yl)-ethyl]-amide} 8-[((R)-1-phenyl-propyl)-amide]]
